In publication PMC3758034, “New Insight into the SAR of Pyrimido [4,5-b][1,4] Benzothiazines as 15-lipoxygenase Inhibitors” (Iranian Journal of Basic Medical Sciences, 2013):

Biological target: soybean 15-lipoxygenase (SLO) (Glycine max, UniProt P08170)
Experiment: SLO screening assay (spectrophotometric MBTH-DMAB peroxide formation method, 598 nm)
Assay type: biochemical
Details: pH = 8.3 versus pH = 7.0
Experimental: Linoleic acid and two assay solutions (A and B) were prepared in advance. Solution A was 50 mM DMAB in a l00 mM phosphate buffer (pH 7.0). Solution B was a mixture of l0 mM MBTH (3 mL), hemoglobin (5 mg/mL, 3 mL) in 50 mM phosphate buffer at pH 5.0 (25 mL). A linoleic acid solution was prepared by mixing 5 mg of linoleic acid with 0.5 mL ethanol and then diluting with KOH 100 mM to a final volume of 5 mL. […] A control test was done with the same volume of ethanol. After the pre-incubation, linoleic acid solution (50 µL) was added to start the peroxidation reaction, and, 7 min later, solution A (270 µL) and then solution B (130 µL) was added to start the color formation. 5 min later, 200 µL of a 2% SDS solution was added to terminate the reaction. The absorbance at 598 nm was compared with control test. The IC50 results are outlined in Table 1.
It is interesting to note that the aforementioned amino acids with the exception of Val769 and Phe576 are conserved ([18], [19]). […] The inhibitory activity of compounds 1a-f, 2a-f towards SLO enzyme was determined by measuring the amount of peroxide formation. In this method, with the help of a spectrophotometer and by using a mixture of MBTH (3-methyl-2-benzothiazolonhydrazone) and DMAB (3-dimethylaminobenzoic acid) indicators in the presence of hemoglobin at the wavelength of 598 nm, the peroxide concentration was determined ([16]).

Chain of soybean 15-lipoxygenase (SLO) (P08170 whole entry): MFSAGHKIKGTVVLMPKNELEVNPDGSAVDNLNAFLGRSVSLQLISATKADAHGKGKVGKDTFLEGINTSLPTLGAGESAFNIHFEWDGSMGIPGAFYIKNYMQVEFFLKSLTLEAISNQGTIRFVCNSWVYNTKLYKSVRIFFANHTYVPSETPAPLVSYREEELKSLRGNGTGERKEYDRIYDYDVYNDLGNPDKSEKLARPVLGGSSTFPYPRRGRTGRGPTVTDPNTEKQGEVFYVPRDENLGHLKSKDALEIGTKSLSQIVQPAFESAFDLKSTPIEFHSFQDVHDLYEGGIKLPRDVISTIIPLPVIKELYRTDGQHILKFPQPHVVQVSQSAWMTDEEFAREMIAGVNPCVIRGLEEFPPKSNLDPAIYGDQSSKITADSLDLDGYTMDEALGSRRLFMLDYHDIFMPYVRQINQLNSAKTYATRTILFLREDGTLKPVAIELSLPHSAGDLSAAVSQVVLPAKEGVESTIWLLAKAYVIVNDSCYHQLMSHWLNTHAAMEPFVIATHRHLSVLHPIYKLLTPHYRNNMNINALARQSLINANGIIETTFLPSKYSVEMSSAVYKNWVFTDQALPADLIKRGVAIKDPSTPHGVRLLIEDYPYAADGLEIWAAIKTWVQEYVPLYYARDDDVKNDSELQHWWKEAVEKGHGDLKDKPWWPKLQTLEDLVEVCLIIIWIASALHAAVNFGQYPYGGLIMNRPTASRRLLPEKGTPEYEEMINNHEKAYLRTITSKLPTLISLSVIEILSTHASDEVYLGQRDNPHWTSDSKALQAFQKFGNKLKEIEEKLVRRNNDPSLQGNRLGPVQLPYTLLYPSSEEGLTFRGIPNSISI

SMILES | IC50 at higher pH
CC1CCN(c2ncc3c(n2)Sc2ccccc2N3)CC1 [1c] | nearly unchanged
Cc1nc(N2CCC(C)CC2)nc2c1Nc1ccccc1S2 [2c] | nearly unchanged
